Peptide text beside a SMILES is read from it. * marks the point of attachment. Cbz = O=C(OCc1ccccc1)*
Assays:
BACE1 = BACE1 steady-state levels by Western blot in stably transfected CHO cells; type: cell-based, human; details: CHO cells, proteasome inhibitor for 10 hours (MG-132 5 μM, lactacystin 10 μM)
Experimental: Chinese Hamster Ovary (CHO) cells were grown in DMEM (Gibco BRL—Invitrogen, Carlsbad, Calif.) supplemented with 10% fetal bovine serum (FBS) and penicillin/streptomycin (Mediatech, Inc., Herndon, Va.) as described before (Puglielli et al., 2001, Nat. Cell Biol. 3: 905-912; Puglielli et al., 2003, J. Biol. Chem. 278: 19777-19783; Costantini et al., 2005, Biochem. J. 391: 59-67; Costantini et al., 2006, EMBO J. 25: 1997-2006). Cells were maintained in a humidified atmosphere with 5% CO2. For ceramide treatment, C6-ceramide (also simply called ceramide herein) was administered at the final concentration of 10 μM; treatment was started when cells were ˜30% confluent and carried out for 4 days, unless specified otherwise. Treatment with proteasome inhibitors MG-132 (5 μM) and lactacystin (10 μM) was done for 10 hours, as described earlier (Qing et al., 2004, FASEB J. 18: 1571-1573).
Cell lysates were prepared in GTIP buffer (100 mM Tris-pH 7.6, 20 mM EDTA, 1.5 M NaCl) with 1% Triton X-100 (Roche, Basel, Switzerland), 0.25% NP40 (Roche), and a protease inhibitor cocktail (Roche) as described before (Puglielli et al., 2003, J. Biol. Chem. 278: 19777-19783; Costantini et al., 2005, Biochem. J. 391: 59-67). Briefly, cell monolayers were washed twice in PBS, scraped, transferred into eppendorf tubes, and centrifuged at 8,000 rpm for 5 min in a table-top centrifuge. Cell pellets were then lysed in ice for 30 min with the buffer indicated above, and centrifuged again at 14,000 rpm prior to the recollection of the protein extracts. Proteins were quantitated with the BCA Protein Assay (Pierce, Rockford, Ill.) following the manufacturer's instructions.
For the immunoprecipitation of BACE1, cell lysates were pre-cleared with BioMag Protein A (Polysciences, Inc., Warrington, Pa.); beads were used at the concentration of 15 μl of the slurry per sample and separated with a magnetic holder. BACE1 was then immunoprecipitated with anti-BACE1 antibodies overnight and recovered with BioMag Protein A as above. The immunoprecipitate-bead complexes were washed 3 times in PBS and boiled for 10 min in SDS sample buffer (Invitrogen) with β-mercaptoethanol. Beads were then separated and the samples were analyzed by reducing SDS-PAGE.
Western blotting was performed on 10% Bis-Tris, 4-12% Bis-Tris, or 7% Tris-Acetate SDS-PAGE systems (NuPAGE; Invitrogen) as described (Puglielli et al., 2001, Nat. Cell Biol. 3: 905-912; Puglielli et al., 2003, J. Biol. Chem. 278: 19777-19783; Costantini et al., 2005, Biochem. J. 391: 59-67; Costantini et al., 2006, EMBO J. 25: 1997-2006). The following antibodies were used: anti-BACE1 N-terminal (monoclonal antibody; R&D Systems, Minneapolis, Minn.); anti-BACE1 C-terminal (polyclonal antibody; Abcam, Cambridge, Mass.); anti-pro-BACE1 (polyclonal; Abcam); anti-acetylated lysine (monoclonal; Abcam); anti-calreticulin (ER marker, polyclonal; Abcam); anti-58 K Golgi/formiminotransferase cyclodeaminase (Golgi marker, polyclonal; Abcam); anti-syntaxin (Golgi marker, monoclonal; Abcam); anti-EEA1 (endosomes, monoclonal; BD Transduction Laboratories, Lexington, Ky.); anti-actin (polyclonal; Cell Signaling, Danvers, Mass.). Secondary antibodies (Amersham) were used at a 1:6000 dilution. Binding was detected by chemiluminescence (LumiGLO kit; KPL, Gaithersburg, Md.). Only a representative blot of at least three different experiments is shown throughout the paper.
FIG. 1 illustrates how BACE1 is transiently acetylated in the lumen of the ER. For this experiment, CHO cells expressing human BACE1 were treated with C6-ceramide (also simply called ceramide herein) for different periods of time. BACE1 was then immunoprecipitated and analyzed by Western blotting. FIG. 1(A): CHO cells stably expressing BACE1 were treated with ceramide for the indicated time. BACE1 was immunoprecipitated from total cell lysates, separated on a 7% Tris-Acetate NuPAGE system, and then analyzed by Western blot using either anti-BACE1 or anti-acetylated lysine antibodies. […]

[1] = target: T1, ER membrane acetyl-CoA transport activity (Cricetulus griseus, UniProt G3H231); assay: Acetyl-CoA transport assay into intact ER vesicles; type: biochemical, Chinese Hamster; details: ER vesicles, increasing concentrations of Coenzyme A
T1 sequence (G3H231 1-550): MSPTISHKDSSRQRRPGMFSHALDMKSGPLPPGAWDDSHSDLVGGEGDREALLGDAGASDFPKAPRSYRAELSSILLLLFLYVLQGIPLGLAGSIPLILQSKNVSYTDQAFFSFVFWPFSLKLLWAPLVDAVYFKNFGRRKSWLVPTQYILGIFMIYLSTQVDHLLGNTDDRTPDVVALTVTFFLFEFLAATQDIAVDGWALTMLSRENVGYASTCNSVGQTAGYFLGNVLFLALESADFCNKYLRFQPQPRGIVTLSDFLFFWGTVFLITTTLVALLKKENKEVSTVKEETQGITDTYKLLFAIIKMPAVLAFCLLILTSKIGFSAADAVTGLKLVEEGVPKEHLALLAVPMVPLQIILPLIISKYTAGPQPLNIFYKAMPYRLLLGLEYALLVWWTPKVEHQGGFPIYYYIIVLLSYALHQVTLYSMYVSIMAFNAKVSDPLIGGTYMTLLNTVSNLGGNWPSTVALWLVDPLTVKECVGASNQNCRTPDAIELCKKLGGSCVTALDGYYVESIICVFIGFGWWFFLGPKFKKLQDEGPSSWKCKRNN
Experimental: Intact vesicles from the endoplasmic reticulum (ER) and the Golgi apparatus were purified on a 10-34% Iodixanol (OptiPrep; Axis-Shield, Norway) continuous gradient as described (Puglielli et al., 2001, Nat. Cell Biol. 3: 905-912). […] Fractions enriched in ER and Golgi markers (also called ER or Golgi vesicles herein) were separated, pooled together, and resuspended in isotonic/cryogenic buffer (0.25 M sucrose and 10 mM Tris-HCl, pH 7.4) in the presence of protease inhibitors (Roche). Latency of ER and Golgi vesicles was determined with the glucose-6-phosphatase (Clairmont et al., 1992, J. Biol. Chem. 267: 3983-3900) and the sialyl-transferase (Puglielli and Hirschberg, 1999, J. Biol. Chem. 274: 35596-35600) methods, respectively. The purity of the preparation was further confirmed by assaying the above enzymatic activities, together with transport of CMP-sialic acid.
Briefly, assays were performed in 100 μl final volume (isotonic/cryogenic buffer) using 25 to 50 μg of ER/Golgi vesicles protein. […] After 5 min at 30° C., reactions were stopped by lowering the temperature to 0-4° C. and by adding 100 μl of ice-cold isotonic/cryogenic buffer (described above). […] Pellets were then dissolved in 0.6 mL of NaOH 1 N; after neutralization with 0.2 mL of 4N HCl, samples were counted by scintillation spectrometry. […]
Asterisk (*) indicates statistical significance (n=3) (P<0.0005). FIG. 5(D): transport of CMP-sialic acid into ER and Golgi intact vesicles was measured as described in (A). […] FIG. 5(E): transport of ATP into ER intact vesicles obtained from control and ceramide-treated CHO cells was measured as described in FIG. 5(A). […]
Translocation was measured as described in the Materials and Methods section. […] FIG. 10(E): transport of ATP into ER intact vesicles obtained from control and ceramide-treated CHO cells was measured as described in FIG. 10(A). […]
Results are expressed as percent of control (no CoA; white bar) and are the average±S.D. Asterisk (*) indicates statistical significance. […]

Structure (SMILES) | steady-state levels of BACE1Ala (BACE1) | steady-state levels of BACE1WT (BACE1) | acetyl-CoA transport across the ER membrane [1]
CC(C)C[C@@H](C=O)NC(=O)[C@H](CC(C)C)NC(=O)[C@H](CC(C)C)NC(=O)OCc1ccccc1 [MG-132] (Cbz-Leu-Leu-Leu-aldehyde) | not those of BACE1Ala | successfully increased | 
CC(=O)N[C@@H](CSC(=O)[C@]1([C@@H](O)C(C)C)NC(=O)[C@H](C)[C@@H]1O)C(=O)O [lactacystin] | not those of BACE1Ala | successfully increased | 
CC(C)(COP(=O)(O)OP(=O)(O)OC[C@H]1O[C@@H](n2cnc3c(N)ncnc32)[C@H](O)[C@@H]1OP(=O)(O)O)[C@@H](O)C(=O)NCCC(=O)NCCS [Coenzyme A] |  |  | inhibited

Source: US20090042993A1, “IDENTIFICATION OF NOVEL POST-TRANSLATIONAL PROTEIN MODIFICATIONS” (priority 2007, published 2009)
